Assay results: patent publication US5811558A, “Process for the resolution of etodolac using glucamine derivatives” (priority 1994, dated 1998)
Structures can show the parent of a compound that is named as a salt.

Assays:
[1] = open randomised two way crossover pharmacokinetic study in healthy male volunteers, single oral dose; format: in vivo, human (healthy male volunteers); details: for half-life: t1/2
Description: (§1) An open randomised two way crossover study was conducted on a group of 13 healthy male volunteers to investigate the pharmacokinetics of the meglumine salt of (S)-etodolac and racemic etodolac (Lodine®); 11 volunteers received both treatments. Doses used were […] of the meglumine salt (equivalent to 100 mg of the free acid) and 200 mg of racemic etodolac. Blood samples were taken regularly.
The results of the pharmacokinetic study are shown in Table 1 and in FIGS. 1 and 2 below.
FIG. 1 is a graph of plasma concentration (μg/ml) of the (S)enantiomer for all volunteers receiving a single oral dose of 200 mg of racemic etodolac.
FIG. 2 is a graph of plasma concentration (μ/ml) of the (S) enantiomer for all volunteers receiving a single oral dose of 168 mg of the meglumine salt of (S)-etodolac (100 mg free acid equivalent).

[2] = free acid, Lee et al, J. Pharm. Sci. (1988); cited from earlier work
[3] = set-up: species or system human (healthy male volunteers); details: human, in vivo
Description: as §1
Etodolac had no affect on vital signs, ECGs, physical examinations or on any clinical laboratory assessments, including serum biochemistry, haematology and urinalysis, when administered in either form.

| peak plasma concentrations in words ([1]; human, in vivo) | tmax ([1]; human, in vivo, po) | appearance in plasma in words ([1]; meglumine salt dosed orally) | t1/2 comparison in words ([1]; human, in vivo) | half-life ([1]; human, in vivo, po) | tmax ([1]; human, in vivo, po, tmax) | plasma concentrations of (R)-etodolac relative to (S)-etodolac ([1]; human, in vivo, po) | SMILES | stability on heating under acidic conditions [2] | effect on vital signs, ECGs, physical examinations or clinical laboratory assessments (serum biochemistry, haematology, urinalysis) [3] |
| --- | --- | --- | --- | --- | --- | --- | --- | --- | --- |
| significantly higher | 0.333 h | appears in the plasma very rapidly |  |  |  |  | CCc1cccc2c3c([nH]c12)[C@](CC)(CC(=O)O)OCC3 [Meglumine salt of (S)-etodolac] |  |  |
|  | 1.23 h |  | markedly lower | ~2 h |  |  | CCc1cccc2c3c([nH]c12)[C@](CC)(CC(=O)O)OCC3 [(S)-etodolac] |  |  |
|  |  |  | substantially eguivalent | 7.14 h | 1.67 h |  | CCc1cccc2c3c([nH]c12)C(CC)(CC(=O)O)OCC3 (racemic) [racemic etodolac] | leads to its decomposition | no affect |
|  |  |  | substantially eguivalent | ~7 h | 1.73 h | about 10 times higher | CCc1cccc2c3c([nH]c12)[C@@](CC)(CC(=O)O)OCC3 [(R)-etodolac] |  |  |
